Values of other authors in patent US8288413B2, “Benzimidazolones which have activity at M1 receptor” (Glaxo Group Limited, priority 2005, dated 2012).

How the values were obtained:
[1] = tested on: unilateral 6-OH-DA lesioned rats
[2] = in vivo
c-fos expression = details: rats

- EPS liability (monkeys): without EPS liability
Structure (SMILES): CCCCCCOc1nsnc1C1=CCCN(C)C1 [xanomeline]
- amphetamine induced locomotion (rats): reverses
- apomorphine induced climbing (mice): reverses
- dopamine agonist driven turning [1]: reverses
- amphetamine-induced motor unrest (monkeys): reverses
- A9 dopamine cell firing (dopamine cell firing; A9): not A9
- A10 dopamine cell firing (dopamine cell firing; A10): inhibit
- conditioned avoidance [2]: inhibit
- c-fos expression in prefrontal cortex and nucleus accumbens (c-fos expression): induces
- c-fos expression in striatum (c-fos expression): not in striatum
- psychotic symptoms such as suspiciousness, hallucinations and delusions (Alzheimer's patients; Alzheimer's patients): reduce
- side effects (Alzheimer's patients; clinical use): dose-limiting peripheral cholinergic side effects
